These are literature values, as cited in patent US9072778B2, “Treatment regimen for N-MYC, c-MYC, and L-MYC amplified and overexpressed tumors” (UNIVERSITY OF HAWAII, priority 2005, dated 2015).

For the data set the following is noted: SAM486A, Phase II, relapsed or refractory non-Hodgkin's lymphoma; cited from earlier work.

On to `N=C(N)c1cccc2c1CC/C2=N\N=C(N)N` [SAM486A, 4-amidinoindan-1-one 2′-amidinohydrazone], for which the “most frequent side effects” value is “nausea, vomiting, diarrhea, asthenia, abdominal pain, and flushing”.
